Experiment [1] has as its target T1, Human 5-HT4 receptor (5-HT4b) (Homo sapiens, UniProt Q13639).
T1 construct: expressed in transfected cells; membrane preparation
Description: Test Example 3: Human 5-HT4 receptor binding assay, membranes of CHO-K1 cells stably expressing 5-HT4b receptors (Table 99). Conditions: mean value of each group. A digest of the protocol:
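Membranes from CHO-K1 cells stably expressing 5-HT4b incubated with 0.1 nM [3H]-GR113808 in 50 mM Hepes pH 7.4, 37 °C, 30 min; nonspecific binding with 30 μM serotonin. Bound label collected by filtration and scintillation counting; IC50 from inhibition of specific binding.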

A further experiment has as its target T2, human 5-HT4b receptor (Homo sapiens, UniProt Q13639).
T2 construct: expressed in transfected cells; host or cells: CHO cells (G418 selection)
In words: Test Example 4: Serotonin 4 (5-HT4) receptor agonist activity assay, cAMP HTRF in CHO cells (Table 100). Type of experiment: cell-based. Conditions: mean value; for Emax: CHO, 0.25 h, intrinsic activity, maximal activity of 5-HT defined as 100%, read-out: IA (%); for EC50: concentration showing 50% of IA. In a few lines:
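CHO cells expressing human 5-HT4b receptor, serum-reduced for 1–2 h, were suspended in Hanks/HEPES pH 7.4 and exposed to compound for 15 min at 31° C. cAMP detected by HTRF (cryptate/d2, 1 h RT, 620/665 nm). EC50 and intrinsic activity relative to maximal 5-HT response (10^−11 to 10^−7 M) set at 100%.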

A value given as a limit tells only on which side of the number the result lay.

T2 sequence (Q13639 whole entry): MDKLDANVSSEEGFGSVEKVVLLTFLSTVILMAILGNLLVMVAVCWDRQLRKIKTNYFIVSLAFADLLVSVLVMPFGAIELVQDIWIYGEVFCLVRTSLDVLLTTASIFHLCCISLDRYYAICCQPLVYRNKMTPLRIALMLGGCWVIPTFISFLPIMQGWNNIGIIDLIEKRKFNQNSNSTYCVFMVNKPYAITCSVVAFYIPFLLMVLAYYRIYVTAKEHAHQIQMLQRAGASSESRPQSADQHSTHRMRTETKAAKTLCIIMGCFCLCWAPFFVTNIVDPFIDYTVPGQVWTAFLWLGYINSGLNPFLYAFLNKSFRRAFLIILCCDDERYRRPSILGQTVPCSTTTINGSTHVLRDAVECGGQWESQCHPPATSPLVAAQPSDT
T1 sequence (Q13639 whole entry): as above

With `CC(=O)N1CC(CN2CC[C@@H](Cc3nc(-n4nc(C(C)C)c5cccc(F)c54)no3)C2)C1` [Example 513, 1-(3-{[(3S)-3-({3-[7-fluoro-3-(propan-2-yl)-1H-indazol-1-yl]-1,2,4-oxadiazol-5-yl}methyl)pyrrolidin-1-yl]methyl}azetidin-1-yl)ethanone], the IC50 in experiment [1] was less than 20 nM. Moreover, on human 5-HT4b receptor, the Emax amounted to 81% and the midpoint of the response, the EC50, lay at 10.2 nM.
`CC(C)c1nn(-c2noc(C[C@@H]3CCN(CC4CN(S(C)(=O)=O)C4)C3)n2)c2c(F)cccc12` [Example 514, 7-fluoro-1-(5-{[(3S)-1-{[1-(methylsulfonyl)azetidin-3-yl]methyl}pyrrolidin-3-yl]methyl}-1,2,4-oxadiazol-3-yl)-3-(propan-2-yl)-1H-indazole]: the IC50 in experiment [1] was less than 20 nM. Further, on human 5-HT4b receptor, the Emax worked out at 70% and it took 12 nM to reach a half-maximal effect (EC50).
In experiment [1], `CC(=O)N1CC[C@@H](CN2CC[C@@H](Cc3nc(-n4nc(C(C)C)c5cccc(F)c54)no3)C2)C1` [Example 515] showed a half-inhibitory concentration (IC50) of less than 20 nM. In addition, on human 5-HT4b receptor, the Emax stood at 70% and the 50% effective concentration (EC50) turned out to be 8.5 nM.
With `CC(C)c1nn(-c2noc(C[C@@H]3CCN(C[C@@H]4CCN(S(C)(=O)=O)C4)C3)n2)c2c(F)cccc12` [Example 516, 7-fluoro-1-(5-{[(3S)-1-{[(3S)-1-(methylsulfonyl)pyrrolidin-3-yl]methyl}pyrrolidin-3-yl]methyl}-1,2,4-oxadiazol-3-yl)-3-(propan-2-yl)-1H-indazole], in experiment [1], the half-inhibitory concentration (IC50) was less than 20 nM. At human 5-HT4b receptor, the Emax was determined as 75% and the EC50 was 7.2 nM.
Taken in the same sequence, the figures for `CC(=O)N1CC[C@H](CN2CC[C@@H](Cc3nc(-n4nc(C(C)C)c5cccc(F)c54)no3)C2)C1` [Example 517, 1-[(3R)-3-{[(3S)-3-({3-[7-fluoro-3-(propan-2-yl)-1H-indazol-1-yl]-1,2,4-oxadiazol-5-yl}methyl)pyrrolidin-1-yl]methyl}pyrrolidin-1-yl]ethanone] were less than 20 nM, 72% and 6.1 nM.
Regarding `CC(C)c1nn(-c2noc(C[C@@H]3CCN(C[C@H]4CCN(S(C)(=O)=O)C4)C3)n2)c2c(F)cccc12` [Example 518, 7-fluoro-1-(5-{[(3S)-1-{[(3R)-1-(methylsulfonyl)pyrrolidin-3-yl]methyl}pyrrolidin-3-yl]methyl}-1,2,4-oxadiazol-3-yl)-3-(propan-2-yl)-1H-indazole], the half-inhibitory concentration (IC50) in experiment [1] was less than 20 nM. Moreover, at human 5-HT4b receptor, the Emax stood at 59% and the EC50 is 5.5 nM.
In turn, `O=C(CO)N1CCC(N2CCC(c3nc(-n4nc(C5CC5)c5cccc(F)c54)no3)CC2)CC1` [Example 523, 1-{4-[3-(3-cyclopropyl-7-fluoro-1H-indazol-1-yl)-1,2,4-oxadiazol-5-yl]-1,4′-bipiperidin-1′-yl}-2-hydroxyethanone] gave an IC50 in experiment [1] of less than 20 nM. Besides, at human 5-HT4b receptor, the Emax turned out to be 24% and the midpoint of the response, the EC50, lay at 2.9 nM.
As for `CCCc1nn(-c2noc(C3CCN(C4CCN(C(=O)CO)CC4)CC3)n2)c2c(F)cccc12` [Example 524, 1-{4-[3-(7-fluoro-3-propyl-1H-indazol-1-yl)-1,2,4-oxadiazol-5-yl]-1,4′-bipiperidin-1′-yl}-2-hydroxyethanone], the 50% inhibitory concentration (IC50) in experiment [1] is less than 20 nM. Also, on human 5-HT4b receptor, the Emax was 84% and a half-maximal response (EC50) required 4.3 nM.
`Cc1nn(-c2noc(C3CCN(C4CCN(C(=O)CO)CC4)CC3)n2)c2c(F)cccc12` [Example 525, 1-{4-[3-(7-fluoro-3-methyl-1H-indazol-1-yl)-1,2,4-oxadiazol-5-yl]-1,4′-bipiperidin-1′-yl}-2-hydroxyethanone] registered a half-inhibitory concentration (IC50) in experiment [1] of less than 20 nM. Besides, on human 5-HT4b receptor, the Emax worked out at 86% and the EC50 was 18.1 nM.
As to `O=C(CO)N1CCC(N2CCC(c3nc(-n4nc(C5CCC5)c5cccc(F)c54)no3)CC2)CC1` [Example 527, 1-{4-[3-(3-cyclobutyl-7-fluoro-1H-indazol-1-yl)-1,2,4-oxadiazol-5-yl]-1,4′-bipiperidin-1′-yl}-2-hydroxyethanone], the 50% inhibitory concentration (IC50) in experiment [1] was less than 20 nM. At human 5-HT4b receptor, the Emax is 114% and a half-maximal response (EC50) required 5.7 nM.
For `CCC(C)c1nn(-c2noc(C3CCN(C4CCN(C(=O)CO)CC4)CC3)n2)c2c(F)cccc12` (stereo not drawn) [Example 528, 1-(4-{3-[3-(butan-2-yl)-7-fluoro-1H-indazol-1-yl]-1,2,4-oxadiazol-5-yl}-1,4′-bipiperidin-1′-yl)-2-hydroxyethanone], the IC50 in experiment [1] is less than 20 nM. On human 5-HT4b receptor, the Emax amounted to 121% and the 50% effective concentration (EC50) came to 17.3 nM.
`CC(C)c1nn(-c2noc(C3CCN(C4CCN(C(=O)CO)CC4(C)C)CC3)n2)c2c(F)cccc12` (stereo not drawn) [Example 531, 1-(4-{3-[7-fluoro-3-(propan-2-yl)-1H-indazol-1-yl]-1,2,4-oxadiazol-5-yl}-3′,3′-dimethyl-1,4′-bipiperidin-1′-yl)-2-hydroxyethanone] gave a half-inhibitory concentration (IC50) in experiment [1] of less than 20 nM. Also, at human 5-HT4b receptor, the Emax is 95% and a half-maximal effect (EC50) was put at 11.4 nM.
For `CC(C)c1nn(-c2noc(C3CCN(C4C5CCC4CN(C(=O)CO)C5)CC3)n2)c2c(F)cccc12` (stereo not drawn) [Example 534, 1-[(8-anti)-8-(4-(3-[7-fluoro-3-(propan-2-yl)-1H-indazol-1-yl]-1,2,4-oxadiazol-5-yl}piperidin-1-yl)-3-azabicyclo[3.2.1]oct-3-yl]-2-hydroxyethanone], the IC50 in experiment [1] amounted to 42.4 nM. Also, on human 5-HT4b receptor, the Emax worked out at 104% and the EC50 is 5.7 nM.
Turning to `CC(C)c1nn(-c2noc(C3CCN([C@H]4[C@@H]5CCC[C@H]4CN(C(=O)CO)C5)CC3)n2)c2c(F)cccc12` [Example 536, 1-[(9-syn)-9-(4-{3-[7-fluoro-3-(propan-2-yl)-1H-indazol-1-yl]-1,2,4-oxadiazol-5-yl}piperidin-1-yl)-3-azabicyclo[3.3.1]non-3-yl]-2-hydroxyethanone], the concentration for half-maximal inhibition (IC50) in experiment [1] is less than 20 nM. In addition, at human 5-HT4b receptor, the Emax is 100% and the EC50 was 3.7 nM.
`CC(C)c1nn(-c2noc(C3CCN(C4(C)CCN(C(=O)CO)CC4)CC3)n2)c2c(F)cccc12` [Example 537, 1-(4-{3-[7-fluoro-3-(propan-2-yl)-1H-indazol-1-yl]-1,2,4-oxadiazol-5-yl}-4′-methyl-1,4′-bipiperidin-1′-yl)-2-hydroxyethanone]: the half-maximal inhibitory concentration (IC50) in experiment [1] is less than 20 nM. At human 5-HT4b receptor, the Emax turned out to be 111% and a half-maximal effect (EC50) was put at 1.3 nM.
For `CCc1nn(-c2noc(C3CCN(C4(C)CCN(C(=O)CO)CC4)CC3)n2)c2c(F)cccc12` [Example 538, 1-{4-[3-(3-ethyl-7-fluoro-1H-indazol-1-yl)-1,2,4-oxadiazol-5-yl]-4′-methyl-1,4′-bipiperidin-1′-yl}-2-hydroxyethanone], the IC50 in experiment [1] is less than 20 nM. On human 5-HT4b receptor, the Emax stood at 76% and the concentration giving a half-maximal response (EC50) worked out at 2.4 nM.
Compound `CC(C)c1nn(-c2noc(C[C@H]3CCN(C4CCN(C(=O)CO)CC4)C3)n2)c2c(F)cccc12` [Example 539, 1-{4-[(3R)-3-({3-[7-fluoro-3-(propan-2-yl)-1H-indazol-1-yl]-1,2,4-oxadiazol-5-yl}methyl)pyrrolidin-1-yl]piperidin-1-yl}-2-hydroxyethanone] returned a half-maximal inhibitory concentration (IC50) in experiment [1] of less than 20 nM. Moreover, at human 5-HT4b receptor, the Emax worked out at 75% and the EC50 was 2.6 nM.
In the case of `CC(C)c1nn(-c2noc(C[C@H]3CCN(C[C@@H]4CCCN4C(=O)CO)C3)n2)c2c(F)cccc12` [Example 540, 1-[(2S)-2-{[(3R)-3-({3-[7-fluoro-3-(propan-2-yl)-1H-indazol-1-yl]-1,2,4-oxadiazol-5-yl}methyl)pyrrolidin-1-yl]methyl}pyrrolidin-1-yl]-2-hydroxyethanone], the IC50 in experiment [1] turned out to be 78.1 nM. Besides, at human 5-HT4b receptor, the Emax amounted to 106% and the midpoint of the response, the EC50, lay at 15.3 nM.
In turn, `CC(C)c1nn(-c2noc(C[C@H]3CCN(C[C@H]4CCCN4C(=O)CO)C3)n2)c2c(F)cccc12` [Example 541, 1-[(2R)-2-{[(3R)-3-({3-[7-fluoro-3-(propan-2-yl)-1H-indazol-1-yl]-1,2,4-oxadiazol-5-yl}methyl)pyrrolidin-1-yl]methyl}pyrrolidin-1-yl]-2-hydroxyethanone] yielded an IC50 in experiment [1] of 35.8 nM. Further, at human 5-HT4b receptor, the Emax was 79% and the half-maximal effective concentration (EC50) was 9 nM.
For `CC(C)c1nn(-c2noc(C[C@H]3CCN(CC4CN(C(=O)CO)C4)C3)n2)c2c(F)cccc12` [Example 542, 1-(3-{[(3R)-3-({3-[7-fluoro-3-(propan-2-yl)-1H-indazol-1-yl]-1,2,4-oxadiazol-5-yl}methyl)pyrrolidin-1-yl]methyl}azetidin-1-yl)-2-hydroxyethanone], the IC50 in experiment [1] is less than 20 nM. Besides, on human 5-HT4b receptor, the Emax worked out at 90% and the midpoint of the response, the EC50, lay at 3.3 nM.
Taken in the same sequence, the figures for `CC(C)c1nn(-c2noc(C[C@H]3CCN(C[C@@H]4CCN(C(=O)CO)C4)C3)n2)c2c(F)cccc12` [Example 543, 1-[(3S)-3-{[(3R)-3-({3-[7-fluoro-3-(propan-2-yl)-1H-indazol-1-yl]-1,2,4-oxadiazol-5-yl}methyl)pyrrolidin-1-yl]methyl}pyrrolidin-1-yl]-2-hydroxyethanone] were less than 20 nM, 92% and 3.7 nM.
For `CC(C)c1nn(-c2noc(C[C@H]3CCN(C[C@H]4CCN(C(=O)CO)C4)C3)n2)c2c(F)cccc12` [Example 544, 1-[(3R)-3-{[(3R)-3-({3-[7-fluoro-3-(propan-2-yl)-1H-indazol-1-yl]-1,2,4-oxadiazol-5-yl}methyl)pyrrolidin-1-yl]methyl}pyrrolidin-1-yl]-2-hydroxyethanone], the half-maximal inhibitory concentration (IC50) in experiment [1] was less than 20 nM. For the same compound, at human 5-HT4b receptor, the Emax was determined as 58% and the EC50 worked out at 4.7 nM.

For the origin of these results see US20140057895A1, “INDAZOLE- AND PYRROLOPYRIDINE-DERIVATIVE AND PHARMACEUTICAL USE THEREOF” (priority 2011, published 2014).
